Test results published in patent US9057094B1, “Nanoparticle-mediated methods for antimicrobial susceptibility testing of bacteria” (UNIVERSITY OF CENTRAL FLORIDA RESEARCH FOUNDATION, INC., priority 2007, dated 2015).

Tests used:
[1] = system: S. marcescens; assay: Dextran-coated polysaccharide nanosensors, antimicrobial susceptibility in blood-supplemented MH broth; type: cell-based, Serratia marcescens; conditions: 2 hours at 37° C., hour-long incubation at 25° C.
Procedure: (§1) In order to investigate if the dextran-coated iron oxide nanoparticles can monitor the starch utilization due to bacterial metabolic activity, different populations of Escherichia coli (strain 8739 from ATCC) were grown in starch-containing MH broth (DIFCOTM, BD) for 2 hours at 37° C. For determination of the minimum inhibitory concentration, Escherichia coli (10^6 CFU), Serratia marcescens (ATCC, 106 CFU) and Shigella sonnie (strain 9290 from ATCC, 106CFU) were grown in a starch-containing MH broth (DIFCOTM, BD), for 2 hours at 37° C. in the presence or absence of ampicillin. For determination of MIC in blood, bacterial stocks (10^6 CFU) were grown in the presence or absence of ampicillin in a 5%-blood-supplemented starch-containing MH broth, for 2 hours at 37° C. […]
(§2) Lastly, due to the fact that many bacteria can either cause septicemia or require growth in optically turbid media, it is important to assess bacterial susceptibility in these complex matrices. However, most current methods cannot be utilized for the detection of molecular targets and assessment of antimicrobial susceptibility in blood, due to the strong absorbance and scattering from the matrix's constituents, including platelets and red blood cells. […] After 45 minutes following Con A addition at room temperature, we determined that the E. coli's ampicillin MIC was 8 μg, without observing any nanoparticle precipitation.

[2] = system: E. coli; assay: Turbidity method (24-hour incubation in MH broth) for MIC; type: cell-based, Escherichia coli; conditions: serial dilutions in MH broth, 24-hour incubation at 37° C.
Procedure: Accurate determination of the minimum inhibitory concentration (MIC) can prevent adverse side effects, such as renal toxicity. Considering that the contemporary MIC determination depends on a day-long process, we examined if Au NPs can yield results faster without sacrificing reliability. Initially, E. coli (10^6 CFU) were incubated for 2 hours at 37° C. in MH broth, in the presence of different concentrations of ampicillin. Then, aliquots of these samples were incubated with Au NPs for 30 minutes at 25° C., in the presence of Con A. Based on the shifts of the surface plasmon band, the MIC was determined to be 8 μg, as the corresponding surface plasmon band shift was statistically different than the control, containing bacteria growing in the absence of antibiotic (FIG. 8A). Correlation with standard methods was achieved by inoculating serial dilutions of ampicillin in MH broth with E. coli, followed by a 24-hour long incubation at 37° C. Bacterial growth was assessed based on the broth's turbidity, whereas absence of turbidity was an indicator of successful antimicrobial susceptibility. […] This concentration was identical to the Au NP-determined MIC, though the Au NP-based method yielded the same results much faster.

[3] = system: E. coli; assay: Dextran-coated gold nanoparticle (Au NP)/Con A surface plasmon band shift assay for MIC; type: cell-based, Escherichia coli; conditions: E. coli 10^6 CFU, 2 hours at 37° C. in MH broth; Au NPs + Con A 30 minutes at 25° C.
Procedure: as §1, with “ampicillin.” for “ampicillin. For determination of MIC in blood, bacterial stocks (10^6 CFU) were grown in the presence or absence of ampicillin in a 5%-blood-supplemented starch-containing MH broth, for 2 hours at 37° C.”
Accurate determination of the minimum inhibitory concentration (MIC) can prevent adverse side effects, such as renal toxicity. […] Then, aliquots of these samples were incubated with Au NPs for 30 minutes at 25° C., in the presence of Con A. Based on the shifts of the surface plasmon band, the MIC was determined to be 8 μg, as the corresponding surface plasmon band shift was statistically different than the control, containing bacteria growing in the absence of antibiotic (FIG. 8A). […] Bacterial growth was assessed based on the broth's turbidity, whereas absence of turbidity was an indicator of successful antimicrobial susceptibility. […] This concentration was identical to the Au NP-determined MIC, though the Au NP-based method yielded the same results much faster.

[4] = system: E. coli; assay: Con A-conjugated nanosensors (non-competition assay), blood cultures; type: cell-based, Escherichia coli; conditions: within 5 minutes after addition of bacterial sample
Procedure: as §1
(§3) In our first set of experiments with the aminated silica-coated nanoparticles, we determined whether these nanoparticles clustered non-specifically in the presence of Con A in solution. […]
(§4) Then, we examined if MIC determination can be achieved using these Con A-conjugated nanosensors, in blood cultures of E. coli and S. marcescens. […] Likewise, within 5 minutes the Con A-conjugated nanosensors assessed that S. marcescens was resistant to ampicillin, further corroborating the findings that the non-competition assay format provides faster results than the competition-based assay of the dextran-coated nanosensors (FIG. 20B).

[5] = system: E. coli; assay: High-throughput Au-NP/Con A assay on 96-well plate; type: cell-based, Escherichia coli; conditions: E. coli 10^6 CFU, Con A 30-min at 25° C.
Text: Finally, the potential of our Au-NP-based assay for the determination of antimicrobial susceptibility in high-throughput format was investigated. In these studies, samples of heat-inactivated E. coli (10^6 CFU) and E. coli (10^6 CFU) grown in the presence or absence of ampicillin were screened with the Au-NP on a 96-well plate using a microtiter plate reader.

[6] = system: Shigella sonnei; assay: Dextran-coated IO NP/Con A magnetic relaxation (ΔT2) assay for MIC; type: cell-based; conditions: Shigella sonnei 10^6 CFUs, 2 hours at 37° C. in MH broth; Con A 30-minute incubation at room temperature
Procedure: as §1
(§5) First, we wanted to determine if magnetic IO NPs coated with dextran could be used to determine and quantify the levels of a polysaccharide (starch) in bacterial culture media. […] The samples were examined in a Bruker 0.47 T (20 MHz) magnetic relaxometer (The MiniSpec, Bruker), and the individual sample's changes in spin-spin relaxation times (ΔT2) were determined based on the formula: |ΔT2incubation time−ΔT2prior ConA|. […]
(§6) We then determined the antibiotic susceptibility or resistance of other bacteria utilizing the IO NPs. […]

[7] = system: S. marcescens; assay: Con A-conjugated nanosensors (non-competition assay), blood cultures; type: cell-based, Serratia marcescens; conditions: within 5 minutes after addition of bacterial sample
Procedure: as §1, §3, §4

[8] = system: Serratia marcescens; assay: Dextran-coated IO NP/Con A magnetic relaxation (ΔT2) assay of antibiotic resistance; type: cell-based; conditions: Serratia marcescens 10^6 CFUs, 2 hours at 37° C. in MH broth; Con A 30-minute incubation at room temperature
Procedure: as §1, §5, §6

[9] = system: E. coli; assay: Dextran-coated polysaccharide nanosensors, antimicrobial susceptibility in blood-supplemented MH broth; type: cell-based, Escherichia coli; conditions: 2 hours at 37° C., 45 minutes following Con A addition at room temperature
Procedure: as §1, §2

[10] = system: E. coli; assay: Dextran-coated iron oxide nanoparticle (IO NP)/Con A magnetic relaxation (ΔT2) assay for MIC; type: cell-based, Escherichia coli; conditions: E. coli 10^6 CFUs, 2 hours at 37° C. in MH broth; Con A 30-minute incubation at room temperature
Procedure: as §1, with “ampicillin.” for “ampicillin. For determination of MIC in blood, bacterial stocks (10^6 CFU) were grown in the presence or absence of ampicillin in a 5%-blood-supplemented starch-containing MH broth, for 2 hours at 37° C.”
as §5
Then, utilizing the IO NPs, we determined ampicillin's MIC. […] Specifically, the magnetic-relaxation-determined minimum inhibitory concentration was 8 μg, as at this concentration we observed a drastic change in the values of ΔT2. […]

CC1(C)S[C@@H]2[C@H](NC(=O)[C@H](N)c3ccccc3)C(=O)N2[C@H]1C(=O)O [ampicillin]
Drug susceptibility or resistance in blood [1]: drug resistance
Lowest ampicillin concentration where the MH broth was clear (turbidity MIC) [2]: 8 µg
MIC (minimum inhibitory concentration) based on shifts of the surface plasmon band [3]: 8 µg
Ampicillin MIC in blood cultures, Con A-conjugated nanosensors [4]: 8 µg
Categorization of sample (inhibitory or non-inhibitory) ([5]; 2 μg ampicillin): non-inhibitory
Categorization of sample (inhibitory or non-inhibitory) ([5]; 64 μg ampicillin): inhibitory
Magnetic-relaxation-determined minimum inhibitory concentration [6]: 8 µg
Drug susceptibility or resistance in blood cultures, Con A-conjugated nanosensors [7]: resistant
Antibiotic susceptibility or resistance (changes in T2) [8]: resistant
Ampicillin MIC in blood [9]: 8 µg
Magnetic-relaxation-determined minimum inhibitory concentration [10]: 8 µg
